The values below come from patent US20060228313A1, “Method of cosmetic depigmentation care by applying at least one aurone” (Coletica, priority 2005, published 2006).

What is called LD50 is the dose at which mortality reaches 50%. Low values mean greater toxicity, high ones lower toxicity.

In data set [1] the test system is normal human melanocytes. The data set can be described thus: Cytotoxicity on normal human melanocytes, PNPP determination. The data set is classed as cell-based. To be noted: 24 hours. As for the experimental part:
The cytotoxicity of the actives is studied on normal human melanocytes in a 24-well plate by a determination with PNPP(P-nitrophenyl phosphate), a substance which is converted into p-nitrophenol by the intracellular acid phosphatases of viable cells.
The absorbance of p-nitrophenol at 405 nm is directly proportional to the number of viable cells.
The actives are tested at 2 different concentrations (10^−4 M and 10^−5 M) and are added to the culture medium and are incubated at 37° C. for 24 hours. The determination with PNPP is carried out on a cell mat and the results are expressed as a percentage viability with respect to the negative control (non-treated wells).

Data set [2] has as its target T1, Human tyrosinase (Homo sapiens, UniProt P14679).
T1 construct: Normal human melanocytes (originating from abdominal plasty) are sown in a 24-well plate; endogenous in cells; host or cells: normal human melanocytes (abdominal plasty; donors of light, brown and black phototype)
T1 sequence (P14679 19-529): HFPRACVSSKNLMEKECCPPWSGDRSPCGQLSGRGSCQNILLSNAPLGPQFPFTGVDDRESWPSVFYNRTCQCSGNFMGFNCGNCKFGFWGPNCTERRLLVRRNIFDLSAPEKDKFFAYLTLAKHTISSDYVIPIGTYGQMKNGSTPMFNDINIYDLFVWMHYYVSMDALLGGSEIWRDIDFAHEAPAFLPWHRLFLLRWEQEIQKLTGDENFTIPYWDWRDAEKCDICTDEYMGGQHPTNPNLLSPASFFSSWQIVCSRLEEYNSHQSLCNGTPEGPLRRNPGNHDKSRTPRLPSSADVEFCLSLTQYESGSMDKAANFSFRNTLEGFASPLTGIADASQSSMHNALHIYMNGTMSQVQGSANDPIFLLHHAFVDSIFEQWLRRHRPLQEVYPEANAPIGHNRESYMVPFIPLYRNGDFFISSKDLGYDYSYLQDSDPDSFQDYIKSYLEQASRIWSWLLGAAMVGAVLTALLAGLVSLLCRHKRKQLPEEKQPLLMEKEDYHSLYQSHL
The data set can be described thus: Inhibition of human tyrosinase in a monolayer after application of the actives on normal human melanocytes. The data set is classed as cell-based. To be noted: for Inhibition of human tyrosinase after application on normal human melanocytes, percentage inhibition: 24 hours; for Inhibition of human tyrosinase on normal human melanocytes, result in words: model of Example 15. As to the method: Normal human melanocytes (originating from abdominal plasty) are sown in a 24-well plate at the rate of 80,000 cells per well. They are cultivated up to confluence and the actives are applied for 24 hours in the culture media. After 24 hours, the media are removed and the melanocytes are picked up by mechanical action. An extraction is made by heat shock and the supernatants are then recovered and then incubated with MBTH (Sigma) and L-Dopa (Sigma). The OD at 490 nm is measured after 30 minutes, and the inhibition is of the tyrosinase is calculated by comparing the OD at 490 nm to the protein level (measured in each culture well) of the test with respect to the ratio: OD 490 nm/concentration of protein of the negative control (non-treated control). […]

For data set [3], the system named is normal human melanocytes. From the text:
A study is made with molecules known in the literature for their depigmenting activity. These molecules are applied to the model described in Example 15 so as to compare their efficiency with respect to the aurones is described above.

The test system of data set [4] is rat. The data set can be described thus: in vivo. Particulars: both, po. As to the method: (§1) Toxicology tests were carried out on the compound obtained according to Example 9 incorporated at 10% in a 0.5% xanthan gum, by an ocular evaluation in the rabbit, by the study of the absence of abnormal toxicity by single oral administration in the rat and by the study of the sensitizing power in the guinea pig.
(§2) The preparations described were administered in one batch orally at the dose of 5 g/Kg of body weight, to 5 male rats and 5 female rats according to a protocol inspired from the Directive of the OECD No. 401 of Feb. 24, 1987 and adapted to cosmetic products. The LD0 and LD50 are found to be greater than 5,000 mg/Kg. The preparations tested are therefore not classed amongst the preparations which are dangerous by ingestion.

Data set [5] in a line: in vivo. To be noted: both sexes, rat, po. As for the experimental part: as §1, §2
Data set [6] has as its system eye of rabbits. The data set can be described thus: Evaluation of the ocular irritation in the rabbit (OECD 405). The data set is classed as in vivo. To be noted: compound at 10% in a 0.5% xanthan gum, instilled pure, 0.1 ml. As for the experimental part: as §1
The preparations described above were instilled pure and in one batch at the rate of 0.1 ml in the eye of three rabbits according to the method recommended by the directive of the OECD NO. 405 of Feb. 24, 1987, in relation to the study of “the acute irritant/corrosive effect on the eyes”.

For data set [7], the system named is guinea pig. The data set can be described thus: Skin sensitisation potential in the guinea pig, Magnusson and Kligmann maximization test (OECD 406). The data set is classed as in vivo. To be noted: compound at 10% in a 0.5% xanthan gum. As for the experimental part:
as §1
The preparations described are subjected to the maximization test described by Magnusson and Kligmann, a protocol which is in agreement with the directive line No. 406 of the OECD.

For the molecule `CCc1ccc(/C=C2\Oc3cc(O)cc(O)c3C2=O)cc1` [Example 7b], the “Percentages viability on normal human melanocytes” value (shortened to “Percentages viability”) in data set [1] (10^−4 M) is on record as 63.52%; in data set [1] (10^−5 M), 143.15%. For the same molecule, the “Inhibition of human tyrosinase after application on normal human melanocytes, percentage inhibition” value (shortened to “Inhibition … percentage inhibition”) in data set [2] (10^−5M) is given as 4.52%.
For `COc1cc(O)c2c(c1)O/C(=C\c1ccccc1)C2=O` [Example 6, (Z)-2-Benzylidene-4-hydroxy-6-methoxybenzofuran-3(2H)-one], the “Percentages viability” value in data set [1] (10^−5 M) is recorded as 121.56%.
As to “4,6-Dihydroxybenzofuran-3(2H)-one (R1=OH) and 6-Hydroxybenzofuran-3(2H)-one (R1=H) [Example 2]”, the entries for the “Percentages viability” value in data set [1] (10^−4 M) and in data set [1] (10^−5 M) were 103.84% and 126.09%, respectively. Further, in data set [2] (10^−5M), the “Inhibition … percentage inhibition” value was determined as 9.69%.
In the case of `COc1cc(OC)c2c(c1)O/C(=C\c1ccc(O)cc1)C2=O` [Example 5a, (Z)-4,6-dimethoxy-2-(4′-hydroxybenzylidene)benzofuran-3(2H)-one], the “Percentages viability” value is 104.53% in data set [1] (10^−4 M) and 90.87% in data set [1] (10^−5 M).
On to `O=C1/C(=C/c2ccc(O)cc2)Oc2cc(O)cc(O)c21` [Example 9b, (Z)-4,6-Dihydroxy-2-(4′-hydroxybenzylidene)benzofuran-3(2H)-one], for which the “Percentages viability” value worked out at 90.31% in data set [1] (10^−4 M) and 128.39% in data set [1] (10^−5 M). The “Inhibition of human tyrosinase on normal human melanocytes, result in words” value in data set [2] is given as “particularly active”; in data set [2] (listed as compound 9b), “high efficiency”.
`O=C1O[C@H]([C@@H](O)CO)C(O)=C1OP(=O)(O)O` [VitC PMG, reference compound]: the cytotoxicity entry in data set [3] is on record as “no”. Further, the “Inhibition (%) of tyrosinase” value in data set [2] (tested at 0.03%) is given as 2.93%; in data set [2] (tested at 0.3%), 1.55%; in data set [2] (tested at 3%) it was −3.49%.
Take `COc1ccc(/C=C2\Oc3cc(O)cc(O)c3C2=O)cc1` [Example 9, (Z)-4,6-Dihydroxy-2-(4-methoxybenzylidene)benzofuran-3(2H)-one]: the LD0 entry in data set [4] was “greater than 5,000 mg/Kg”. In data set [5], the LD50 is > 5000 mg/kg. The Ocular irritation entry in data set [6] is given as “non-irritant for the eyes”. In addition, the Skin sensitisation potential entry in data set [7] is given as “non-sensitizing by contact with the skin”.
Regarding `COc1cc(O)c2c(c1)O/C(=C\c1ccc(C#N)cc1)C2=O` [Example 6d], the “Percentages viability” value is given as 85.65% in data set [1] (10^−4 M) and 119.36% in data set [1] (10^−5 M). For the same molecule, the “Inhibition … percentage inhibition” value in data set [2] (10^−4M) was determined as 2.31%; in data set [2] (10^−5M), 0%.
Regarding `COc1cc(O)c2c(c1)O/C(=C\c1ccc(SC)cc1)C2=O` [Example 6c], in data set [1] (10^−5 M), the “Percentages viability” value worked out at 116.24%. Further, in data set [2] (10^−5M), the “Inhibition … percentage inhibition” value came to 14.19%.
Regarding `CCc1ccc(/C=C2\Oc3cc(OC)cc(OC)c3C2=O)cc1` [Example 5b, (Z)-4,6-dimethoxy-2-(4′-ethylbenzylidene)benzofuran-3(2H)-one], in data set [1] (10^−5 M), the “Percentages viability” value amounted to 99.62%.
With `COc1cc(OC)c2c(c1)O/C(=C\c1ccc(SC)cc1)C2=O` [Example 5c, (Z)-4,6-dimethoxy-2-(4′-methylthiobenzylidene)benzofuran-3(2H)-one], the “Percentages viability” value in data set [1] (10^−4 M) came out at 80.08%; in data set [1] (10^−5 M), 136.13%.
`COc1cc(OC)c2c(c1)O/C(=C\c1ccc(C#N)cc1)C2=O` [Example 5d, (Z)-2-(4′-cyanobenzylidene)-4,6-dimethoxybenzofuran-3(2H)-one]: the “Percentages viability” value is listed as 98.93% in data set [1] (10^−4 M) and 96.51% in data set [1] (10^−5 M).
The matching figures for `COc1cc(OC)c2c(c1)O/C(=C\c1ccccc1)C2=O` [Example 5, (Z)-2-Benzylidene-4,6-dimethoxybenzofuran-3(2H)-one]: 83.1% and 98.55%.
As to `COc1cc(OC)c2c(c1)OCC2=O` [Example 4, 4,6-Dimethoxybenzofuran-3(2H)-one], the “Percentages viability” value in data set [1] (10^−4 M) is reported as 106.77%; in data set [1] (10^−5 M), 85.33%.
